Measurements published in ChEMBL document CHEMBL1201862, “PubChem BioAssay data set” (2004).
Counter-ions that a name gives are not always drawn.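 The compound was tested at five concentrations on cells cultured in 96-well plates, with a 48-hour exposure period. The concentration for 50% growth inhibition is given as GI50.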 Calls of active or inactive are those of the source. Cut-off read from the data, not from the text of the source: active = GI50 up to about 1.1 µM and inactive = higher.

How the values were obtained:
Experiment in all cases: NCI tumour cell line growth inhibition, 48 h
IGROV-1 = tested on: IGROV-1
CAKI-1 = tested on: CAKI-1
MOLT-4 = tested on: MOLT-4
T47D = tested on: T47D
HOP-92 = tested on: HOP-92
K562 = tested on: K562
MDA-MB-231 = tested on: MDA-MB-231
MDA-MB-435 = tested on: MDA-MB-435
OVCAR-8 = tested on: OVCAR-8
DU-145 = tested on: DU-145
COLO 205 = tested on: COLO 205
Hs-578T = tested on: Hs-578T
SK-MEL-2 = tested on: SK-MEL-2
786-0 = tested on: 786-0
SF-268 = tested on: SF-268
ACHN = tested on: ACHN
MCF7 = tested on: MCF7
TK-10 = tested on: TK-10
Malme-3M = tested on: Malme-3M
NCI-H460 = tested on: NCI-H460

SMILES	GI50 (IGROV-1)	GI50 (CAKI-1)	GI50 (MOLT-4)	GI50 (T47D)	GI50 (HOP-92)	GI50 (K562)	GI50 (MDA-MB-231)	GI50 (MDA-MB-435)	GI50 (OVCAR-8)	GI50 (DU-145)	GI50 (COLO 205)	GI50 (Hs-578T)	GI50 (SK-MEL-2)	GI50 (786-0)	GI50 (SF-268)	GI50 (ACHN)	GI50 (MCF7)	GI50 (TK-10)	GI50 (Malme-3M)	GI50 (NCI-H460)
C[n+]1c(-c2ccc(/C=C/C=N\NC(=O)c3ccc(C(=O)N/N=C\C=C\c4ccc(-c5cn6ccccc6[n+]5C)cc4)cc3)cc2)cn2ccccc21	> 68.5 µM (inactive)	38.7 µM (inactive)	43.6 µM (inactive)	> 48.1 µM (inactive)	> 100 µM (inactive)	27.5 µM (inactive)	> 43.3 µM (inactive)	> 100 µM (inactive)	> 100 µM (inactive)	> 54.3 µM (inactive)	> 100 µM (inactive)	> 100 µM (inactive)	> 100 µM (inactive)	30.3 µM (inactive)	> 100 µM (inactive)	> 100 µM (inactive)	> 94.8 µM (inactive)	> 86.3 µM (inactive)	> 100 µM (inactive)	> 100 µM (inactive)
CCCCCCCCCCCCC(O)C1CCC(C(O)CCCCCCC(O)CCCCCCCC2=CC(C)OC2=O)O1 (stereo not given)	35.5 µM (inactive)	24.9 µM (inactive)	7.29 µM (inactive)	2.8 µM (inactive)	25.8 µM (inactive)	6.55 µM (inactive)	28.6 µM (inactive)	2.67 µM (inactive)	36.6 µM (inactive)	> 10 µM (inactive)	19.7 µM (inactive)	4.4 µM (inactive)	24.6 µM (inactive)	32.9 µM (inactive)	6.53 µM (inactive)	2.48 µM (inactive)	0.745 µM (active)	35.4 µM (inactive)	25.9 µM (inactive)	12.9 µM (inactive)
O=C(O)c1c(CC(Cc2ccccc2)C(=O)O)ccc2c1CCC2 (stereo not given)	> 100 µM (inactive)	> 100 µM (inactive)	> 100 µM (inactive)	66.5 µM (inactive)	> 100 µM (inactive)	> 100 µM (inactive)	> 100 µM (inactive)	> 100 µM (inactive)	> 100 µM (inactive)	> 100 µM (inactive)	> 100 µM (inactive)	> 100 µM (inactive)	> 100 µM (inactive)	> 100 µM (inactive)	> 100 µM (inactive)	> 100 µM (inactive)	> 100 µM (inactive)	> 100 µM (inactive)	> 100 µM (inactive)	> 100 µM (inactive)
Cn1c2c(c3c(=O)[nH]ncc31)Cc1ccccc1-2	6.79 µM (inactive)	13.3 µM (inactive)	3.45 µM (inactive)	25.6 µM (inactive)	25.2 µM (inactive)	18.2 µM (inactive)	14 µM (inactive)	14.3 µM (inactive)	11.7 µM (inactive)	10.6 µM (inactive)	10.9 µM (inactive)	26.5 µM (inactive)	21.3 µM (inactive)	6.37 µM (inactive)	12 µM (inactive)	5.07 µM (inactive)	11.5 µM (inactive)	5.81 µM (inactive)	16.3 µM (inactive)	3.04 µM (inactive)
O=C(CN1CCCCC1)c1ccc2c(c1)Sc1ccccc1O2	10.6 µM (inactive)	18.3 µM (inactive)	23.1 µM (inactive)	22.8 µM (inactive)	7.64 µM (inactive)	57 µM (inactive)	16.7 µM (inactive)	14.5 µM (inactive)	16.9 µM (inactive)	20.9 µM (inactive)	7.73 µM (inactive)	5.18 µM (inactive)	18.7 µM (inactive)	14.8 µM (inactive)	17.5 µM (inactive)	14.1 µM (inactive)	15.9 µM (inactive)	18.9 µM (inactive)	17.6 µM (inactive)	14.1 µM (inactive)
COC(=O)c1cc2/c(=N/O)c3ccccc3sc2o1	> 100 µM (inactive)	> 100 µM (inactive)	> 100 µM (inactive)	> 100 µM (inactive)	> 100 µM (inactive)	> 100 µM (inactive)	> 100 µM (inactive)	> 100 µM (inactive)	> 100 µM (inactive)	> 100 µM (inactive)	> 100 µM (inactive)	55.5 µM (inactive)	> 100 µM (inactive)	> 100 µM (inactive)	> 100 µM (inactive)	> 100 µM (inactive)	> 100 µM (inactive)	> 100 µM (inactive)	> 100 µM (inactive)	61 µM (inactive)
N=C(N)c1ccc(-c2ccc(-c3ccc(C(=N)N)cc3)o2)cc1 [FURAMIDINE HYDROCHLORIDE]	46.3 µM (inactive)	54.3 µM (inactive)	27.4 µM (inactive)	23.4 µM (inactive)	62.4 µM (inactive)	22.8 µM (inactive)	> 100 µM (inactive)	30.7 µM (inactive)	33.7 µM (inactive)	32.7 µM (inactive)	12.4 µM (inactive)	21.4 µM (inactive)	23.8 µM (inactive)	23.2 µM (inactive)	45.3 µM (inactive)	39.6 µM (inactive)	17.5 µM (inactive)	24.9 µM (inactive)	18.6 µM (inactive)	17.6 µM (inactive)
